Laboratory results from patent US4794124A, “Therapeutic composition for diabetic complications” (priority 1985, dated 1988).

Legend:
diabetic rats [1] = assay: Clinical serum chemistry values at week 11 in streptozotocin-induced diabetic rats; format: in vivo, male SD rats; conditions: 400 mg/kg/day oral
Experimental: (§1) The effects of oral administration of cysteine in diabetic rats were investigated.
(§2) A second group received tap water similarly.
(§3) Blood glucose was determined 2 days and 11 weeks after administration of streptozotocin to confirm that the rats were in hyperglycemic condition. Further, body weight was determined periodically during the study period. After 11 weeks, the blood was withdrawn from the abdominal aorta for clinical serum chemical examination. Moreover, to monitor the cataract supervening in diabetes, the rat crystalline lens was periodically examined using a slit lamp.

diabetic rats [2] = assay: Blood glucose in streptozotocin-induced diabetic rats; format: in vivo, male SD rats; conditions: cysteine 400 mg/kg/day oral, n = 8-10, normal 220 ± 20
Experimental: as §1, §2, §3

[3] = Time course of body weight in streptozotocin-induced diabetic rats; format: in vivo, male SD rats; conditions: long-term repeated administration, 400 mg/kg/day oral
Experimental: as §1, §2, §3

lens sorbitol = assay: Sorbitol content of the lens in streptozotocin-induced diabetic rats; conditions: for Sorbitol content of the lens: n = 4-5
Experimental: Using male SD rats weighing about 100 g, experimental diabetes was induced by injecting 70 mg/kg of streptozotocin into the caudal vein.
The rats were divided into 2 groups of 10 individuals. A first group of rats were given a 10% aqueous solution of cysteine in a volume of 0.2 ml/100 g body weight twice daily (cysteine 400 mg/kg/day) by gastric gavage beginning the day before administration of streptozotocin. This group is referred to as the cysteine-treated group. A second group received tap water similarly. This group is referred to as the control group.

rat crystalline lens = assay: Progression of cataract in streptozotocin-induced diabetic rats (slit lamp, 7 stages); format: in vivo, male SD rats; conditions: 400 mg/kg/day oral
Experimental: as §2, §3
The progression of cataract was evaluated on the scale of the following 7 stages up to mature cataract.
0: No lens opacity at all
I: Slight opacity of the lens epithelium or small vacuoles in the equatorial region.
II: Vacuoles multiplying and merging to spread into the cortex.
III: The vacuoles pervading most of the cortex have begun to disappear.
IV: The majority of vacuoles have disappeared and the whole cortex is translucent.
V: Opacity of the lens nucleus.
VI: Opacity of the whole lens (mature cataract)
Then, cataract which is a diabetic complication ready to develop in such diabetic animal models was studied by monitoring the rats for 11 weeks.
The bar graphs in FIG. 1(a) through (f) show the time course of cataract stages. […]

For `N[C@@H](CS)C(=O)O` [cysteine], the “Serum chemical parameters (overall)” value (diabetic rats [1]) was “close to the normal values”, the Total bilirubin (diabetic rats [1]; n = 8-10, normal 0.2 ± 0.0, control 0.43 ± 0.23) was 0.28 ± 0.18 mg/dL and the Uric acid (diabetic rats [1]; n = 8-10, normal 1.8 ± 0.4, control 2.5 ± 2.5) was 1.5 ± 0.5 mg/dL. The γ-GTP (diabetic rats [1]; n = 8-10, normal 2.4 ± 2.0, control 42.9 ± 31.3) was 13.4 ± 7.2 U/L, the Lipid peroxide (diabetic rats [1]; n = 8-10, normal 3.95 ± 0.53, control 5.40 ± 0.68) was 4.48 ± 0.56 nmol/dL and the ALP (diabetic rats [1]; n = 8-10, normal 48 ± 8, control 83 ± 25) was 68 ± 26 KAU. It also gave a Total cholesterol (diabetic rats [1]; n = 8-10, normal 51 ± 6, control 175 ± 76) of 118 ± 57 mg/dL, a GPT (diabetic rats [1]; n = 8-10, normal 61 ± 27, control 450 ± 320) of 311 ± 184 U/L and a Neutral lipid (diabetic rats [1]; n = 8-10, normal 90 ± 25, control 1437 ± 858) of 645 ± 605 mg/dL. It also gave a GOT (diabetic rats [1]; n = 8-10, normal 102 ± 42, control 952 ± 1038) of 495 ± 358 U/L, a β-lipoprotein (diabetic rats [1]; n = 8-10, normal 112 ± 13, control 493 ± 233) of 299 ± 173 mg/dL and an LAP (diabetic rats [1]; n = 8-10, normal 199 ± 15, control 297 ± 78) of 234 ± 66 GRU. The TTT (diabetic rats [1]; thymol turbidity test, n = 8-10, normal 0.15 ± 0.05, control 3.94 ± 3.88) was 1.03 ± 0.90 U, the ZST (diabetic rats [1]; zinc sulfate test, n = 8-10, normal 1.2 ± 0.1, control 6.2 ± 4.8) was 2.6 ± 1.3 U and the Blood glucose (diabetic rats [2]; after 11 weeks, control 721 ± 75) was 767 ± 77 mg/dL. For the same molecule, the Blood glucose (diabetic rats [2]; after 2 days, control 521 ± 78) was 559 ± 99 mg/dL, the “Effect on body weight gain in diabetic rats” value [3] was “did not affect the body weight gain” and the “Accumulation of sorbitol in the lens, cysteine-treated vs control group” value (lens sorbitol; 2 and 3 weeks after streptozotocin) was “no significant difference”. For the same molecule, the “Sorbitol content of the lens” value (lens sorbitol; after 2 weeks, control 0.996 ± 0.286) was 1.056 ± 0.166 μmole/lens, the “Sorbitol content of the lens” value (lens sorbitol; after 3 weeks, control 1.186 ± 0.164) was 1.025 ± 0.031 μmole/lens and the “Progress of cataract compared with the control group” value (rat crystalline lens; any observation period (2, 4, 6, 8, 10, 11 weeks), FIG. 1) was “the progress of cataract was inhibited”. The “Effect on progression of cataract (cumulative variance analysis)” value (rat crystalline lens; p<0.0001 vs control) was “significant retarding effect on the progression of cataract”.
